Counter-ions that a name gives are not always drawn.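 Following 48 hours of exposure in 96-well plates, responses at five concentrations were used to interpolate endpoints linearly. At the GI50, growth is halved.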 Activity calls are given as the source filed them. Cut-off read from the data, not from the text of the source: active = GI50 up to about 1.1 µM and inactive = higher.
How the values were obtained:
Test in all cases: NCI anticancer screen, dose series, 48 h
IGROV-1 = test system: IGROV-1
SF-268 = test system: SF-268
SK-MEL-2 = test system: SK-MEL-2
MOLT-4 = test system: MOLT-4
HOP-62 = test system: HOP-62
OVCAR-5 = test system: OVCAR-5
HCT-116 = test system: HCT-116
LOX IMVI = test system: LOX IMVI
NCI-H226 = test system: NCI-H226
HOP-92 = test system: HOP-92
OVCAR-3 = test system: OVCAR-3
OVCAR-4 = test system: OVCAR-4
MDA-MB-435 = test system: MDA-MB-435
SF-539 = test system: SF-539
PC-3 = test system: PC-3
ACHN = test system: ACHN
DU-145 = test system: DU-145
A549 = test system: A549
SR = test system: SR
HCT-15 = test system: HCT-15

Measured: GI50

Nc1ccccc1N/C(=C\C(=O)C(Cl)(Cl)Cl)c1ccccc1
25.4 µM: HCT-15
inactive: IGROV-1 5.6 µM | SF-268 24.3 µM | SK-MEL-2 14.1 µM | MOLT-4 23.3 µM | HOP-62 23.6 µM | OVCAR-5 15.7 µM | HCT-116 16.1 µM | LOX IMVI 19.5 µM | NCI-H226 24.2 µM | HOP-92 14.5 µM | OVCAR-3 22.5 µM | OVCAR-4 29.2 µM | MDA-MB-435 30.9 µM | SF-539 18.8 µM | PC-3 22.5 µM | ACHN 24.1 µM | DU-145 38.8 µM | A549 28.8 µM | SR 28.2 µM

c1ccc2c(c1)nc1n2C2CCC(C2)N1 (stereo unspecified)
> 10 µM: HCT-15
inactive: IGROV-1 > 10 µM | SF-268 > 10 µM | SK-MEL-2 > 10 µM | MOLT-4 > 10 µM | HOP-62 > 10 µM | OVCAR-5 > 10 µM | HCT-116 > 10 µM | LOX IMVI > 10 µM | NCI-H226 > 10 µM | HOP-92 > 10 µM | OVCAR-3 > 10 µM | OVCAR-4 > 10 µM | MDA-MB-435 > 10 µM | SF-539 > 10 µM | PC-3 > 10 µM | DU-145 > 10 µM | A549 > 10 µM | SR > 10 µM

CCCN1CC=C(c2cc(C(=O)OCC)[nH]c2-c2cc(C)no2)C1=O
inactive: IGROV-1 > 100 µM | SF-268 > 100 µM | SK-MEL-2 > 100 µM | MOLT-4 53.6 µM | HOP-62 > 100 µM | OVCAR-5 > 100 µM | HCT-116 > 100 µM | LOX IMVI > 100 µM | NCI-H226 73.5 µM | HOP-92 > 100 µM | OVCAR-3 > 100 µM | OVCAR-4 > 100 µM | MDA-MB-435 > 100 µM | SF-539 > 100 µM | PC-3 > 100 µM | DU-145 > 100 µM | A549 > 100 µM | SR 54.7 µM
> 100 µM: HCT-15

c1ccc2c(c1)CCN1CCc3ccccc3C1C2 (stereo unspecified)
40.2 µM: HCT-15
inactive: IGROV-1 48 µM | SF-268 32.2 µM | SK-MEL-2 51.2 µM | MOLT-4 40.4 µM | HOP-62 56.2 µM | OVCAR-5 38.4 µM | HCT-116 17.5 µM | LOX IMVI 35.1 µM | NCI-H226 23.6 µM | HOP-92 31 µM | OVCAR-3 99.1 µM | OVCAR-4 > 100 µM | MDA-MB-435 33 µM | SF-539 20.5 µM | PC-3 43.7 µM | ACHN 77.6 µM | DU-145 > 100 µM | A549 35.8 µM | SR 47.8 µM

O=C(NO)NCCCl
> 100 µM: HCT-15
inactive: IGROV-1 > 100 µM | SF-268 > 100 µM | SK-MEL-2 > 100 µM | MOLT-4 > 100 µM | HOP-62 > 100 µM | OVCAR-5 > 100 µM | HCT-116 > 100 µM | LOX IMVI > 100 µM | NCI-H226 > 100 µM | HOP-92 > 100 µM | OVCAR-3 > 100 µM | OVCAR-4 > 100 µM | MDA-MB-435 > 100 µM | SF-539 > 100 µM | PC-3 > 100 µM | ACHN > 100 µM | DU-145 > 100 µM | A549 > 100 µM | SR > 100 µM

N=c1oc2ccc3ccccc3c2cc1-c1nc(O)c2ccccc2n1
inactive: IGROV-1 16 µM | SF-268 30.8 µM | SK-MEL-2 14.4 µM | MOLT-4 15.8 µM | HOP-62 15.8 µM | OVCAR-5 96.6 µM | HCT-116 24.4 µM | LOX IMVI 38.5 µM | NCI-H226 37.1 µM | HOP-92 15.1 µM | OVCAR-4 20.6 µM | MDA-MB-435 58.3 µM | SF-539 31.2 µM | PC-3 13.4 µM | ACHN 11.1 µM | DU-145 36.4 µM | A549 20.7 µM | SR 26.5 µM
19.9 µM: HCT-15

CCn1c2ccccc2c2cc(Nc3cc(C)[nH]c(=O)n3)ccc21
> 100 µM: HCT-15
inactive: SF-268 > 100 µM | SK-MEL-2 > 100 µM | HOP-62 > 100 µM | OVCAR-5 > 100 µM | HCT-116 > 100 µM | HOP-92 > 100 µM | OVCAR-3 > 100 µM | OVCAR-4 > 100 µM | SF-539 > 100 µM | PC-3 > 100 µM | ACHN > 100 µM | DU-145 > 100 µM | A549 > 100 µM
active: MDA-MB-435 0.33 µM | SR 0.0199 µM

CN[C@@H]1[C@H](O)[C@H](NC)[C@H]2O[C@@]3(O)C(=O)C[C@@H](C)O[C@H]3O[C@@H]2[C@H]1O [SPECTINOMYCIN SULFATE]
> 100 µM: HCT-15
inactive: IGROV-1 > 100 µM | SF-268 > 100 µM | MOLT-4 > 100 µM | HOP-62 > 100 µM | OVCAR-5 > 100 µM | HCT-116 > 100 µM | LOX IMVI > 100 µM | NCI-H226 > 100 µM | HOP-92 > 100 µM | OVCAR-3 > 100 µM | OVCAR-4 > 100 µM | MDA-MB-435 > 100 µM | SF-539 > 100 µM | PC-3 > 100 µM | ACHN > 100 µM | DU-145 > 100 µM | SR > 100 µM

From ChEMBL document CHEMBL1201862, “PubChem BioAssay data set” (2004)
